From ChEMBL document CHEMBL3232938, “Design, synthesis, and biological evaluation of dihydroartemisinin-fluoroquinolone conjugates as a novel type of potential antitubercular agents” (2014) come the findings set out here.

In brackets after ≈: the same amount, converted by molar mass.

Holding throughout (type): functional
The subject of assay [1] is Mycobacterium tuberculosis. The experiment in a line: Antibacterial activity against multidrug-resistant 1 ug/ml Mycobacterium tuberculosis clinical isolate 1288 assessed as growth inhibition after 7 days by microtiter plate assay. The settings on record: isolate 1288, 168 h.
Assay [2] deals with Mycobacterium tuberculosis. As to the kind of experiment: Antibacterial activity against multidrug-resistant 1 ug/ml Mycobacterium tuberculosis clinical isolate 1259 assessed as growth inhibition after 7 days by microtiter plate assay. Particulars: isolate 1259, 168 h.
Assay [3] relates to Mycobacterium tuberculosis. As to the kind of experiment: Antibacterial activity against multidrug-resistant 1 ug/ml Mycobacterium tuberculosis clinical isolate 1237 assessed as growth inhibition after 7 days by microtiter plate assay. Particulars: isolate 1237, 168 h.
Assay [4] relates to Mycobacterium tuberculosis. The experiment in a line: Antibacterial activity against multidrug-resistant 1 ug/ml Mycobacterium tuberculosis clinical isolate 930 assessed as growth inhibition after 7 days by microtiter plate assay. Particulars: isolate 930, 168 h.
Assay [5] concerns Mycobacterium tuberculosis. The experiment in a line: Antibacterial activity against multidrug-resistant 1 ug/ml Mycobacterium tuberculosis clinical isolate 1256 assessed as growth inhibition after 7 days by microtiter plate assay. The settings on record: isolate 1256, 168 h.

In the case of `C[C@H]1[C@@H](OCCCNC2CCN(c3c(F)cc4c(=O)c(C(=O)O)cn(C5CC5)c4c3Cl)C2)O[C@@H]2O[C@@]3(C)CC[C@H]4[C@H](C)CC[C@@H]1[C@@]24OO3` (stereo not given in full), the MIC in assay [1] worked out at 0.125 µg/mL (≈ 0.181 µM); in assay [2], 2 µg/mL (≈ 2.9 µM); in assay [3], 2 µg/mL (≈ 2.9 µM); in assay [4], 4 µg/mL (≈ 5.8 µM); in assay [5], 16 µg/mL (≈ 23.2 µM).
Turning to `C[C@H]1[C@@H](O)O[C@@H]2O[C@@]3(C)CC[C@H]4[C@H](C)CC[C@@H]1[C@@]24OO3` [ARTENIMOL], the MIC in assay [1], in assay [2], in assay [3], in assay [4] and in assay [5] was over 16 µg/mL throughout.
`NC1CCN(c2c(F)cc3c(=O)c(C(=O)O)cn(C4CC4)c3c2Cl)C1` (stereo not given) [CLINAFLOXACIN]: the MIC was 1 µg/mL (≈ 2.73 µM) in assay [1]; 0.125 µg/mL (≈ 0.342 µM) in assay [2]; 1 µg/mL (≈ 2.73 µM) in assay [3]; 4 µg/mL (≈ 10.9 µM) in assay [4]; 0.5 µg/mL (≈ 1.37 µM) in assay [5].
Regarding `CCn1cc(C(=O)O)c(=O)c2cc(F)c(N3CCNCC3)cc21` [NORFLOXACIN], the MIC was over 16 µg/mL in assay [1]; 2 µg/mL (≈ 6.26 µM) in assay [2]; over 16 µg/mL in assay [3]; over 16 µg/mL in assay [4]; 16 µg/mL (≈ 50.1 µM) in assay [5].
On to `O=C(O)c1cn(-c2ccc(F)cc2)c2cc(N3CCNCC3)c(F)cc2c1=O` [SARAFLOXACIN], for which the MIC in assay [1] was over 16 µg/mL; in assay [2], 4 µg/mL (≈ 10.4 µM); in assay [3], over 16 µg/mL; in assay [4], over 16 µg/mL; in assay [5], 16 µg/mL (≈ 41.5 µM).
In the case of `C[C@H]1[C@@H](OCCNC2CCN(c3c(F)cc4c(=O)c(C(=O)O)cn(C5CC5)c4c3Cl)C2)O[C@@H]2O[C@@]3(C)CC[C@H]4[C@H](C)CC[C@@H]1[C@@]24OO3` (stereo not given in full), the MIC in assay [1] amounted to 0.125 µg/mL (≈ 0.185 µM); in assay [2] it was 2 µg/mL (≈ 2.96 µM); in assay [3], 2 µg/mL (≈ 2.96 µM); in assay [4] it was 4 µg/mL (≈ 5.92 µM); in assay [5], 16 µg/mL (≈ 23.7 µM).

As usually defined, the MIC is the least concentration at which growth counts as inhibited.
